Test results published in US20210060166A1, “Method for the preparation of a 1,7-bis (4-hydroxy-3-methoxyphenyl)-1,6-heptadiene-3,5-dione system in polysorbates for the formation of micelles in an aqueous medium aimed at the properties of the bioavailability of curcuminoids” (priority 2019, published 2021).

Tests used:
Type in all cases: physicochemical
[1] = suspension capacity of polysorbates for curcumin by gravimetry; conditions: Tween 80-Tween 20 (1:1)
Experimental: The suspension capacity of the polysorbates for 1,7-bis (4-hydroxy-3-methoxyphenyl)-1,6-heptadien-3,5-dione was evaluated by gravimetry according to P[…] THE UNITED MEXICAN STATES (FEUM), volume 1, eleventh edition.
Stating that at ratios of <100 of Tween 20 or 80, the capacity is not sufficient to suspend the required analyte dose. However, after 160 mg/mL (1:1) the presence of precipitate was found. In FIG. 2, different concentrations of polysorbate (Tween 80-Tween 20 (1:1) are specified in which, when mixed with analyte results in absence or presence of analyte precipitate (FIG. 3).

[2] = dialysis release of curcumin through cellulose membrane
Excerpt: Spectrum™ Spectra/Por™ 4 RC Dialysis Membrane Tubing 12,000 to 14,000 Dalton MWCO, cellulose, was used. The release conditions were pH 6.8, Polysorbate 1, 8%, Polysorbate 2, 4%. The pH 6.8 was used as Kiyohiko Sugano, Hirokazu Hamada, Minoru Machida, Hidetoshi Ushio, Kimitoshi Saitoh, Katsuhide Terada. Optimized conditions of bio-mimetic artificial membrane permeation assay. International Journal of Pharmaceutics Volume 228, Issues 1-2, 9 Oct. 2001, Pages 181-188 to simulate the conditions of the intestine, where the absorption of the compound is carried out. Concentrations of 8 and 4 percent of the polysorbates were used to ensure that the solution is above the CMC and the ability to form micelles is not lost, since the analytical method requires that an amount of release medium gets removed and replenish with simple medium (FEUM, volume 1, eleventh edition.).

[3] = integration of curcumin into aqueous phase with polysorbates (UV/VIS 424 nm); conditions: 25° C.
Experimental: Three concentrations of polysorbate of different value of HLB were evaluated in a 1:1 ratio for each mixture; With this combination of surfactants, 3 aqueous systems were prepared at concentrations of 0.0052%, 0.04% and 0.113% (% weight/weight). The first corresponds to a concentration below the individual Critical Micellar Concentration (CMC) of each surfactant 2.8529 mg/L, the second corresponds to a concentration slightly above the CMC 6.8439 mg/L and the third corresponds to a concentration well above the CMC, respectively 21.222 mg/L (FIG. 1). […] After 30 minutes of stirring at 500 RPM at 25° C., the suspensions were allowed to stand for 30 minutes and a sample from the supernatant was taken for UV/VIS spectrophotometric evaluation at 424 nm, using the 3 mentioned concentrations as blank.
The ability to form a micellar system of 1,7-bis (4-hydroxy-3-methoxyphenyl)-1,6-heptadien-3,5-dione at different percentages of polysorbates was evaluated.

SMILES: COc1cc(C=CC(=O)CC(=O)C=Cc2ccc(O)c(OC)c2)ccc1O [curcumin, 1,7-bis (4-hydroxy-3-methoxyphenyl)-1,6-heptadien-3,5-dione]
- concentration after which presence of precipitate was found [1]: > 160 mg/mL
- concentration released over time ([2]; absence of polysorbates in the medium): does not show any increase in concentration over time
- concentration released over time ([2]; pH 6.8, Polysorbate 1 8%, Polysorbate 2 4%, 0.25 h to 20 h): increases with time
- curcumin concentration in solution ([3]; polysorbates 0.0052% w/w (below CMC)): 2.8529 mg/L
- curcumin concentration in solution ([3]; polysorbates 0.04% w/w (slightly above CMC)): 6.8439 mg/L
- curcumin concentration in solution ([3]; polysorbates 0.113% w/w (well above CMC)): 21.222 mg/L
